From publication PMC8467576, “Novel Ubiquitin Specific Protease-13 Inhibitors Alleviate Neurodegenerative Pathology” (Metabolites, 2021)

Legend:
[1] = molecular target: T1, USP13 (Homo sapiens, UniProt Q92995); experiment: USP13 activity via functional ELISA in alpha-synuclein transfected SH-SY5Y cells; assay type: cell-based; conditions: SH-SY5Y cells transfected with human alpha-synuclein, 5 h, read-out: Estimated IC50 to USP13
T1 construct: ELISA for USP13 (MyBioSource, Cat # MBS9335287, San Diego, CA, USA); endogenous in cells; host or cells: human SH-SY5Y neuroblastoma cells transfected with human wild-type alpha-synuclein
T1 sequence (Q92995 1-863): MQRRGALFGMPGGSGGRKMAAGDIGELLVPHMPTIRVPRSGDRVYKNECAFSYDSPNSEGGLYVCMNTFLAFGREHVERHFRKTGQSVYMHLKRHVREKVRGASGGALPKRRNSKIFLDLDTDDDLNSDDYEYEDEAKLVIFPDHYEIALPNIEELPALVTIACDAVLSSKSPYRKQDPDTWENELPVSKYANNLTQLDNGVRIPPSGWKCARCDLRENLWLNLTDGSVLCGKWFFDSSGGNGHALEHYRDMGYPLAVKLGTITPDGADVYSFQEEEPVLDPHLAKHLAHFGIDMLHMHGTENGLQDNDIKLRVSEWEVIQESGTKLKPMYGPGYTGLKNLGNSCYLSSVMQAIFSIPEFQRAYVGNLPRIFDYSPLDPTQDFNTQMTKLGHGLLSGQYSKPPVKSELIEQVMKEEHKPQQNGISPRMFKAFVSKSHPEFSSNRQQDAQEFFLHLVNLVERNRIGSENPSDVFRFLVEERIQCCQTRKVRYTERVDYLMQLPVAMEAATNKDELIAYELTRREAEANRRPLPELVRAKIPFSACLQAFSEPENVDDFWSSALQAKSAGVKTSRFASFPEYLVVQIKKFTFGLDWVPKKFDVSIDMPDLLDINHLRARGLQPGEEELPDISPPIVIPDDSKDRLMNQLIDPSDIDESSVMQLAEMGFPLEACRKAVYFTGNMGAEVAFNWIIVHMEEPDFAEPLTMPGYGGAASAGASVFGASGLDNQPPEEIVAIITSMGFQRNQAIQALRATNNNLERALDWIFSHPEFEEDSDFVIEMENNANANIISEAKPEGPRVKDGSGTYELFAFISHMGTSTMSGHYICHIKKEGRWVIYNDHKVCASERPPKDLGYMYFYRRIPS
Protocol: Stably transfected human neuroblastoma SH-SY5Y cells with human wild-type alpha-synuclein were treated with 1 mM, 100 µM, 10 µM, 1 µM, 0.1 µM, 0.01 µM and 0.001 µM of each of BK50118-A, BK50118-B, BK50118-C, CL3-499, CL3-512 and CL3-514 dissolved in an equivalent volume of DMSO for 5 h. […] The other 5 compounds were also able to lower alpha-synuclein levels but with less potency (Figure 3H,I,K–M).
(§1) SH-SY5Y cells were transiently transfected for 24 h with human wild-type α-synuclein using Fugene HD transfection reagent (Promega, E2311, Madison, WI, USA) according to manufacturer’s protocol. Cells were treated with 1 mM, 0.1 mM, 0.01 mM, 1 µM, 0.1 µM, 0.01 µM and 0.001 µM of each novel compounds (BK50118-A, BK50118-B, BK50118-C, CL3-499, CL3-512 and CL3-514) dissolved in DMSO for 5 h. Cells were then harvested on ice by removing culture medium and adding 0.2 mL 1x sodium-tris, EDTA, NP-40 (STEN) buffer (50 mM Tris (pH 7.6), 150 mM NaCl, 2 mM EDTA, 0.2 % NP-40, 0.2 % with Halt protease and phosphatase inhibitor solution (ThermoFisher, 78446). Cells were detached with a cell scraper and collected into centrifuge tubes and incubated at 4 °C for 30 min with agitation. Samples were stored at −80 °C and used for ELISA analyses. For cell viability assay, SHSY-5Y cells stably expressing human wild-type alpha-synuclein were treated with 1 mM, 0.1 mM, 0.01 mM, 1 µM, 0.1 µM, 0.01 µM and 0.001 µM of each novel compound (BK50118-A, BK50118-B, BK50118-C, CL3-499, CL3-512 and CL3-514) dissolved in DMSO for 5 h. Cell viability was determined via lactate dehydrogenase assay on culture media (Thermofisher, 88954) and MTT assay on plated cells (Thermofisher, V13154).
(§2) The ELISA for USP13 (MyBioSource, Cat # MBS9335287, San Diego, CA, USA), Human alpha-synuclein (Biolegend, Cat # 844101, San Diego, CA, USA) and specific p-Tau ser396 (Invitrogen, KHB7031, Waltham, MA, USA) were performed on cell or brain tissue extracts as described above according to manufacturers’ protocol.
All statistical analyses were performed using GraphPad Prism version 5.0 (GraphPad software, Inc, San Diego, CA, USA). Two-tailed student’s t-test was used in comparison of means of two groups. Ordinary one-way analysis of variance (ANOVA) followed by Newman–Keuls or Dunnett comparison post hoc tests were used in comparison of means of multiple groups. Asterisks denote actual p-value significances (* < 0.05, ** < 0.01, *** < 0.001 and **** < 0.0001), and N is the number of animals or the number of independent experiments (cell culture) per group. Unless otherwise indicated, data are expressed as Mean ± SD. IC50 to USP13 levels was also estimated using GraphPad Prism version 5.0 (GraphPad software, Inc, San Diego, CA, USA).

[2] = test system: ptau396; experiment: p-Tau ser396 ELISA in TgA53T mice; assay type: in vivo, mouse; conditions: 10 mg/Kg or 40 mg/Kg I.P. daily for 7 days
Protocol: Therefore, we also measured tau levels. There was no effect on murine tau levels (Figure 4D).
BK50118-C is one of novel small molecule inhibitors of USP13 synthesized in our laboratory. For BK50118-C treatment, approximately 15 months old (±1 month) male and female TgA53T mice were treated with intraperitoneal injection of vehicle (DMSO) or BK50118-C at the daily dosage of 10 mg/Kg or 40 mg/Kg for 7 days. Animals were age and sex-matched in their respective treatment cohorts. All animals were sacrificed after treatment. All experiments were conducted in full compliance with the recommendations of Georgetown University Animal Care and Use Committee. These experiments were conducted under animal protocol No. 2016-1194 titled, Misfolded Protein Clearance in Neurodegeneration, which was approved by the Georgetown University IACUC. Protocol Information: IACUC Protocol Number: 2016-1194. Protocol Approval Date: 14 September 2020 Expiration Date: 14 September 2023.
as §2

[3] = test system: SH-SY5Y human neuroblastoma cells; experiment: LDH and MTT cell viability assays; assay type: cell-based; conditions: 5 h, compared to DMSO or untreated controls
Protocol: BK50118-B and BK50118-C (Figure 2C,D) decreased cell viability near and above 100 μM compared to DMSO or untreated controls. CL3-499 (Figure 2G) decreased cell viability near and above 1 mM compared to DMSO or untreated controls.
as §1

## Fc1ccc2nccc(OCc3ccccc3)c2c1 [BK50118-C, 4-benzyloxy-6-fluoroquinoline]
[1]
  IC50: 0.42 nM
[2]
  effect on murine tau levels (ptau396 ELISA): no effect
[3]
  concentration near and above which cell viability decreased: ≥ 100 µM
